Measured values: paper PMC8797470, “Disruption of the pentraxin 3/CD44 interaction as an efficient therapy for triple‐negative breast cancers” (Clinical and Translational Medicine, 2022)
Ends that are not written are not given here.

What was measured:
[1] = tested on: RANKL, MMP2, NANOG and TWIST2 transcription in MDA-MB-231 cells; assay: Real-time quantitative PCR of PTX3-induced genes; assay type: cell-based, human; settings: MDA-MB-231 cells, with PTX3 treatment
Description: TRIsure RNA extraction reagent (Invitrogen) extracted total RNA. SuperScript™ III Reverse Transcriptase (Invitrogen) was used to synthesis cDNA. Next, SensiFAST™ SYBR (BIOLINE) was applied to perform real‐time quantitative PCR (Q‐PCR) assay. CFX connect Real‐Time PCR System (BIO‐RAD) executed real‐time fluorescence monitoring and the melting curve analysis according to the manufacturer's recommendations. The following pairs of specific primers—human CEBPD (F): 5′‐[…]‐3′ and CEBPD (R): 5′‐[…]‐3′, human PTX3 (F): 5′‐ […]‐3′ and PTX3 (R): 5′‐ […]‐3′, human MMP2 (F): 5′‐ […]‐3′ and MMP2 (R): 5′‐ […]‐3′, human RANKL (F): 5′‐ AGAGC GCAGATGGATCCTAA‐3′ and RANKL (R): 5′‐ TTCCTTTTGCACAGC TCCTT‐3′, human TWIST2 (F): 5′‐[…]‐3′ and TWIST2 (R): 5′‐[…]‐3′, human NANOG (F): 5′‐[…]‐3′ and NANOG (R): 5′‐ […]‐3′, human GAPDH (F): 5′‐ […]‐3′ and GAPDH (R): 5′‐ […]‐3′.

[2] = tested on: MDA-MB-231 cells; assay: Transwell migration and Matrigel invasion assays; assay type: cell-based, human; settings: with PTX3 treatment, 18 h
Description: In migration assay, MDA‐MB‐231 cells seeded in 8.0 μm pore polycarbonate membrane inserts (BD Biosciences) in 24‐well plates. In Matrigel invasion assay, inserts were pre‐coated with an appropriate amount of Matrigel first, and the same number of cells seeded on the Matrigel. After cells adhered on the inserts, serum‐free DMEM medium added in the upper wells. Serum‐free medium containing the treatments of TGF‐β1, PTX3, PTX3NA, PTX3/N, PTX3/C, RI37, GI40, AD9, GR9, IgG1κ, PTX3 Ab‐10 or PTX3 Ab‐49 were then mixed into the lower wells of the 24‐well plates. After incubating for 18 h, cells outside the insert were removed by wiping. The inside the inserts were then stained by 4′,6‐diamidino‐2‐phenylindol (DAPI). Fluorescence microscope was used for counting the total number of migrated cells with 200× magnification. Different from the experimental design for the MDA‐MB‐231 cells, the migrated 4T1‐Luc2 cells in the inside of the insert were detected by luciferase activity.

[3] = tested on: mCherry fluorescent-expressing MDA-MB-231 cells; assay: Orthotopic xenograft of mCherry MDA-MB-231 cells in NOD-SCID mice; assay type: in vivo, mouse; settings: 40 mg/kg peptide every day, intraperitoneal
Description: For the animal model, MB‐Luc2 cells were mixed with human BCAFs xenografts: 1 × 10^5 MB‐Luc2 were mixed with either 1 × 10^5 BCAFs carrying a control knockdown vector (shCtl‐BCAFs), or 1 × 10^5 BCAFs carrying a CEBPD knockdown vector (shCD‐BCAFs), or 1 × 10^5 BCAFs carrying a PTX3 knockdown vector (shP‐BCAFs). The cell mixtures were inoculated into the mammary fat pads of NOD‐SCID mice. In peptide treatment experiments, NOD‐SCID mice were orthotopically inoculated with 1 × 10^6 mCherry fluorescent‐expressing MDA‐MB‐231 cells into the mammary fat pad. Similarly, 5 × 10^5 mCherry fluorescent‐expressing 4T1 cells were orthotopically inoculated into BALB/c mice in the mammary fat pad. Once tumours reached to the mean of 50 mm^3, the mice were administered 40 mg/kg of peptides RI37, GI40, P2rdAD9 or P12rdGR9 every day by intraperitoneal injection. For paclitaxel treatment, 30 mg/kg of paclitaxel was administered to the experimental mice once a week. […] The images of in vivo bioluminescence and metastasis quantification of the lung and brain were analysed by a Xenogen IVISR Spectrum Noninvasive Quantitative Molecular Imaging System. […] After that, tumour volume was mathematically determined by using the standard formula: […], where l represents the length and w represents the width of the tumour. […] After, the number of nodules on the lung surface was measured. […]

GI40: peptide, PTX3 amino acids 320–359 (GGGFDETLAFSGRLTGFNIWDSVLSNEEIRETGGAESCHI; also: biotin, position not given here)
suppressed: PTX3-induced transcription of RANKL, MMP2, NANOG and TWIST2 [1] | PTX3-induced migration and invasion [2] | tumour growth and metastasis [3]

RI37: peptide, PTX3 amino acids 200–236 (RPMRLESFSACIWVKATDVLNKTILFSYGTKRNPYEI; also: biotin, position not given here)
suppressed: PTX3-induced transcription of RANKL, MMP2, NANOG and TWIST2 [1] | PTX3-induced migration and invasion [2] | tumour growth and metastasis [3]
